Assay results published in ChEMBL document CHEMBL1139641 (Bioorg Med Chem Lett, 2005).

Tests used:
[1] = molecular target: GABA B receptor (Rattus norvegicus) (UniProt Q9Z0U4+O88871); assay: Percent displacement of [3H]GABA (1 mM) from Gamma-aminobutyric acid B receptor of rat cerebellum; format: tissue-based
[2] = molecular target: Calcium/calmodulin-dependent protein kinase type II subunit alpha (Rattus norvegicus, UniProt P11275); assay: Displacement of [3H]NCS-382 (16 nM) from GHB receptor of rat cerebrocortical membranes; format: cell membranes, Membrane
Calcium/calmodulin-dependent protein kinase type II subunit alpha, sequence (P11275 whole entry): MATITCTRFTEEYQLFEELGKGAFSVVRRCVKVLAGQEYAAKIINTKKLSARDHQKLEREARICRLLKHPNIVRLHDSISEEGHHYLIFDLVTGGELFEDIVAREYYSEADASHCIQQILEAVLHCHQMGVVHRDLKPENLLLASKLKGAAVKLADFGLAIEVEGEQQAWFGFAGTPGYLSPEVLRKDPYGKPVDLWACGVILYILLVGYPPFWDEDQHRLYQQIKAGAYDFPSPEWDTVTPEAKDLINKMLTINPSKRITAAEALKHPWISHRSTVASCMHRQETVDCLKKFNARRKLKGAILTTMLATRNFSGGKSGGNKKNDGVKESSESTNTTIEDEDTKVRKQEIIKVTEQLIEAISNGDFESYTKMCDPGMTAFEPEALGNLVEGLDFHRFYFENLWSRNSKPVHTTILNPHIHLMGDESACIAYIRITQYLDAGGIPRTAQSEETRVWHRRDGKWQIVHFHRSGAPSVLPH

[3] = molecular target: GABA-A receptor; anion channel (Rattus norvegicus) (UniProt O09028+P15431+P18506+P18508+P19969+P20236+P23574+P23576+P28471+P28473+P30191+P62813+P63079+P63138+Q91ZM7+Q9ES14); assay: Percent displacement of [3H]GABA (1 mM) from Gamma-aminobutyric acid A receptor of rat cerebral cortex; format: tissue-based

Row | Compound | inhibition [1] [%] | IC50 [2] [µM] | inhibition [3] [%]
1 | O=C(O)Cc1cccc(Oc2ccccc2)c1 | -5.5 | 16.3 | 2.7
2 | O=C(O)CCCOc1ccccc1 | 6.5 | 210 | 6.3
3 | O=C(O)Cc1cccc(O)c1 [3-Hydroxyphenylacetate] | 14 | 12 | 44.2
4 | O=C(O)Cc1cccc(OCCCc2ccccc2)c1 | 6 | 4.5 | 17.4
5 | O=C(O)Cc1cccc(OCCc2ccccc2)c1 | -1.2 | 8.3 | 15.1
6 | O=C(O)Cc1cccc(OCc2ccccc2)c1 | -4.7 | 46 | 11
7 | O=C(O)CCCO | 41.1 |  | 35.5
